Experimental data as given in article PMC10041525, “New Dual Inhibitors of Bacterial Topoisomerases with Broad-Spectrum Antibacterial Activity and In Vivo Efficacy against Vancomycin-Intermediate Staphylococcus aureus” (Journal of Medicinal Chemistry, 2023).
≈ marks a conversion by molar mass, not a printed value. Like-named read-outs stand apart in the source and are kept apart here.

What was measured:
K. pneumoniae ATCC 10031 = assay: MIC broth microdilution (CLSI); format: cell-based; conditions: Klebsiella pneumoniae, ATCC10031; read-out: MIC
Experimental: (§1) MICs (Tables 1 and S1–S3) were determined with a standard serial broth microdilution technique according to Clinical and Laboratory Standards Institute (CLSI) guidelines.[45] Cation-adjusted Mueller Hinton broth 2 (MHBII) was used for bacterial growth under standard laboratory conditions and for antimicrobial susceptibility tests. MHBII broth was prepared by dissolving 22 g of MHBII powder [containing beef extract (3 g), acid hydrolysate of casein (17.5 g), and starch (1.5 g); Becton Dickinson and Co.] in 1 L of water. To prepare MHBII agar, 14 g of agar (Bacto; Molar Chemicals) was added to 1 L of broth.
(§2) Bacterial strains were inoculated onto MHBII agar plates and grown overnight at 37 °C. Next, three individual colonies from each strain were inoculated into 1 mL of MHBII medium and propagated at 37 °C overnight, with agitation at 250 rpm. For Enterococcus sp., the cells were plated in brain–heart infusion [(BHI) medium] agar plates, and BHI broth was used to determine the MICs. […] The highest final DMSO concentration in the experiments was 0.64% (in the case of the 64 μg/mL concentration of the inhibitor). Following the dilutions, each well was seeded with 5 × 10^4 bacterial cells (in 100 μL final volume). Each measurement was performed in three parallel replicates, and to avoid possible edge effects in the microwell plates, the outside rows (A, H) were filled with sterile medium. Following the inoculations, the plates were covered with the lids and wrapped in polyethylene plastic bags, to minimize evaporation but to allow O2 transfer. The plates were incubated at 37 °C under continuous shaking at 150 rpm for 18 h. After incubation, the OD600 of each well was measured using a microplate reader (Synergy 2; Biotek). The MICs were defined as the antibiotic concentrations which inhibited the growth of the bacterial cultures; that is, the drug concentration where the average OD600 increment of the three technical replicates was below 1.5-fold the background OD increment.

E. faecium ATCC 700221 = assay: MIC broth microdilution (CLSI); format: cell-based
Experimental: as §1, §2

[1] = test system: S. aureus (VISA) ATCC 700699; assay: MIC broth microdilution (CLSI); format: cell-based; conditions: Staphylococcus aureus; read-out: MIC
Experimental: as §1, §2

P. aeruginosa ATCC 27853 = assay: MIC broth microdilution (CLSI); format: cell-based; conditions: Pseudomonas aeruginosa, ATCC27853; read-out: MIC
Experimental: as §1, §2

[2] = test system: Enterobacter cloacae spp. cloacae ATCC 13047; assay: MIC broth microdilution (CLSI); format: cell-based; conditions: Enterobacter cloacae, ATCC13047; read-out: MIC
Experimental: as §1, §2

E. coli ATCC 25922 = assay: MIC broth microdilution (CLSI); format: cell-based; conditions: Escherichia coli, ATCC25922; read-out: MIC
Experimental: as §1, §2

[3] = test system: S. aureus (MRSA) ATCC 43300; assay: MIC broth microdilution (CLSI); format: cell-based; conditions: Staphylococcus aureus
Experimental: as §1, §2

S. aureus ATCC 29213 = assay: MIC broth microdilution (CLSI); format: cell-based; conditions: Staphylococcus aureus, ATCC29213
Experimental: (§3) Cation-adjusted Mueller Hinton broth 2 (MHBII) was used for bacterial growth under standard laboratory conditions and for antimicrobial susceptibility tests. MHBII broth was prepared by dissolving 22 g of MHBII powder [containing beef extract (3 g), acid hydrolysate of casein (17.5 g), and starch (1.5 g); Becton Dickinson and Co.] in 1 L of water. To prepare MHBII agar, 14 g of agar (Bacto; Molar Chemicals) was added to 1 L of broth.
(§4) Bacterial strains were inoculated onto MHBII agar plates and grown overnight at 37 °C. Next, three individual colonies from each strain were inoculated into 1 mL of MHBII medium and propagated at 37 °C overnight, with agitation at 250 rpm. For Enterococcus sp., the cells were plated in brain–heart infusion [(BHI) medium] agar plates, and BHI broth was used to determine the MICs. […] Following the dilutions, each well was seeded with 5 × 10^4 bacterial cells (in 100 μL final volume). Each measurement was performed in three parallel replicates, and to avoid possible edge effects in the microwell plates, the outside rows (A, H) were filled with sterile medium. Following the inoculations, the plates were covered with the lids and wrapped in polyethylene plastic bags, to minimize evaporation but to allow O2 transfer. […] After incubation, the OD600 of each well was measured using a microplate reader (Synergy 2; Biotek).

A. baumannii ATCC 17978 = assay: MIC broth microdilution (CLSI); format: cell-based; conditions: Acinetobacter baumannii, ATCC17978
Experimental: as §3, §4

[4] = test system: Enterococcus faecalis ATCC 29212; assay: MIC broth microdilution (CLSI); format: cell-based, E. faecalis; conditions: Enterococcus faecalis, ATCC29212; read-out: MIC
Experimental: as §1, §2

DNA gyrase from E. coli = biological target: T1, DNA gyrase from E. coli (Escherichia coli, UniProt P0AES6); assay: supercoiling HTS plate assay; format: biochemical; conditions: IC50 [nM] E. coli DNA gyrase
T1 construct: purchased Inspiralis
Experimental: (§5) All compounds were tested for their inhibitory activities against DNA gyrase and topo IV from E. coli in supercoiling and relaxation high-throughput plate assays, respectively. Our new series of inhibitors were then tested against a panel of Gram-positive and Gram-negative bacteria.
(§6) Seven concentrations of the inhibitors were used to determine IC50 values which were then calculated with GraphPad Prism 6.0 software. Three independent measurements were performed to determine IC50 values, and mean values are reported as the final result.

topo IV from E. coli = biological target: T2, topo IV from E. coli (Escherichia coli, UniProt P20083); assay: relaxation HTS plate assay; format: biochemical
T2 construct: purchased Inspiralis
Experimental: as §5, §6

physchem = format: physicochemical; conditions: phosphate-buffered saline (PBS)
Experimental: For the PBS, 2.38 g of disodium hydrogen phosphate dodecahydrate, 0.19 g of potassium dihydrogen phosphate, and 8.0 g of sodium chloride were added to distilled water (900 mL), and the solution was mixed overnight. […] Samples were prepared by weighing the exact mass of solid compounds (about 1 mg), and then, the appropriate volume of PBS was added to reach the final concentration of ∼1 mg/mL. […] The supernatant was diluted 3× with a 1:1 mixture of 0.1% TFA in water and acetonitrile and analyzed by HPLC. For the 7-point calibration curves, concentrated stock solutions of the compounds were prepared at concentrations of 10 and 0.5 mM in DMSO, which were diluted with a 1:1 mixture of 0.1% TFA in water and acetonitrile to the desired final concentrations and analyzed by HPLC. Results are given in μM as an average value of two independent experiments. For details on calibration curves, concentrations, analytical method, and HPLC method, see the Supporting Information.
Thermodynamic solubility assay
To determine thermodynamic solubility of compounds in PBS, calibration curves for the assayed compounds were prepared using seven concentrations. First, DMSO stock solutions of compounds at 10 mM and 0.5 mM concentration were prepared and then diluted (0.1% TFA in […]
Quality control (QC) samples were diluted from stock solutions with a 1:1 mixture of 0.1% TFA in water and acetonitrile to final concentrations of 60 µM, 20 µM, and 2 µM (6 µM, 2 µM, and 0.2 µM for 7f or 0.6 µM, 0.2 µM, and 0.02 µM for 7g).
Analytical reversed-phase UHPLC analyses were performed on Thermo Scientific Dionex UltiMate 3000 modular system (Thermo Fisher Scientific Inc., MA, USA). Waters Acquity UPLC® HSS C18 SB column (2.1 × 50 mm, 1.8 μm; Waters, Milford, MA, USA) was used at T […]
Mobile phase consisted of 0.1% trifluoroacetic acid in ultrapure water (solvent A) and acetonitrile […]
The obtained data was processed in Chromeleon CDS software (Thermo Fisher Scientific Inc., […]
Analytical method was tested for accuracy, precision and linear rang. Accuracy was […]
(or 2 or 0.2) µM and 60 (or 6 or 0.6) µM) to their true values and expressed in (%). Values were […]
Method repeatability was determined by calculating the RSD from the separately prepared and analysed quality control samples (n = 3). […] Linearity of the […]
method (1 (or 0.1 or 0.01) µM to 100 (or 10 or 1) µM) was evaluated from the 7-point calibration […]
Solubility was determined in two independent experiments and results were calculated in […]

[5] = Enterococcus faecium, ATCC700221, read-out: MIC
[6] = read-out: MIC [µg/mL](S. aureus MRSA ATCC4330)
[7] = read-out: MIC [µg/mL](S. aureus ATCC 29213)
[8] = read-out: MIC [µg/mL] (A. baumannii ATCC 17978)
[9] = read-out: IC50 [nM] E. coli TopoIV

T2 sequence (P0AFI2 whole entry): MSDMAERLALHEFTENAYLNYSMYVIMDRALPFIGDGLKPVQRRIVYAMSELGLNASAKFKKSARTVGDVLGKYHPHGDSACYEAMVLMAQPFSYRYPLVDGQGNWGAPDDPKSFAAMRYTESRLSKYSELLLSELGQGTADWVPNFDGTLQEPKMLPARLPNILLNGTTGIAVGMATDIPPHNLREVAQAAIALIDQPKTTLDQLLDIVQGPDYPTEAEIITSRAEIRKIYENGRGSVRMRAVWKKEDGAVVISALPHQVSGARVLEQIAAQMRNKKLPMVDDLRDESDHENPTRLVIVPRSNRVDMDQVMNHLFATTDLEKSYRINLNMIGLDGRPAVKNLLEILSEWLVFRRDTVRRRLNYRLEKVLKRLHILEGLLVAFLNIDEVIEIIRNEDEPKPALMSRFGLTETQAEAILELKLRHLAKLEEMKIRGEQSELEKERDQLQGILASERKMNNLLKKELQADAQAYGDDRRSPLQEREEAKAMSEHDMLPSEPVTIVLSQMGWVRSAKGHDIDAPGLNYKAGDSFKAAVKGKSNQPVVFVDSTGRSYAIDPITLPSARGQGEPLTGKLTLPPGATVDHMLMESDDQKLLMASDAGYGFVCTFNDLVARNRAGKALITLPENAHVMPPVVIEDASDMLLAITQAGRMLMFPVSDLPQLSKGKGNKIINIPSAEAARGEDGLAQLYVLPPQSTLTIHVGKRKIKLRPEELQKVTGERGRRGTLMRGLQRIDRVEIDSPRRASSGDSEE
T2 sequence (P20083 whole entry): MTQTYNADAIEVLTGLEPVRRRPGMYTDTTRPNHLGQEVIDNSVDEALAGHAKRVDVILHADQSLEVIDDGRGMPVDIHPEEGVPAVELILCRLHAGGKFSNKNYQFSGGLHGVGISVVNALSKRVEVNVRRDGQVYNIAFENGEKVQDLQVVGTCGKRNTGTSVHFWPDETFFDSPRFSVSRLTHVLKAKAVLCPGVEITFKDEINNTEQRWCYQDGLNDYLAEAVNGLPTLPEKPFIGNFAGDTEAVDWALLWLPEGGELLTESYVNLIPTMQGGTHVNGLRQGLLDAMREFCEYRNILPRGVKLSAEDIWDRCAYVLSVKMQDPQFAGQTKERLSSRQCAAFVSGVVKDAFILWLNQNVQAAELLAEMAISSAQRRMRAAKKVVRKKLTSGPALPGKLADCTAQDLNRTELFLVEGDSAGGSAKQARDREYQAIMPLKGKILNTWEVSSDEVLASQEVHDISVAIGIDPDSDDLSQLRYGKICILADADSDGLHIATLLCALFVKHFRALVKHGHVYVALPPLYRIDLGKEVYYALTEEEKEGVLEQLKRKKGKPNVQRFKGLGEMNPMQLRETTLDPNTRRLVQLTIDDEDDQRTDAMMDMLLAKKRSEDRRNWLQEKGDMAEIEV

Row | Structure (SMILES) | MIC (K. pneumoniae ATCC 10031) [µg/mL] | MIC (E. faecium ATCC 700221; [5]) [µg/mL] | MIC [1] [µg/mL] | MIC (P. aeruginosa ATCC 27853) [µg/mL] | MIC [2] [µg/mL] | MIC (E. coli ATCC 25922) [µg/mL] | MIC ([3]; read-out: MIC) [µg/mL] | MIC [3, 6] [µg/mL] | MIC (S. aureus ATCC 29213; read-out: MIC) [µg/mL] | MIC (S. aureus ATCC 29213; [7]) [µg/mL] | MIC (A. baumannii ATCC 17978; read-out: MIC) [µg/mL] | MIC (A. baumannii ATCC 17978; [8]) [µg/mL] | MIC [4] [µg/mL] | IC50 (DNA gyrase from E. coli) [nM] | IC50 (topo IV from E. coli; [9]) [nM] | further results
1 | Cc1[nH]c(C(=O)Nc2nc3c(N4CCCC4)cc(C(=O)O)cc3s2)c(Cl)c1Cl [7j, 2-(3,4-Dichloro-5-methyl-1H-pyrrole-2-carboxamido)-4-(pyrrolidin-1-yl)benzo[d]thiazole-6-carboxylic Acid] | 8 | 0.25 | 0.0625 | 4 | > 32 | 16 | 0.125 | 0.125 | 0.25 | 0.25 | 4 | 4 | 0.125 | < 10 | 68 ± 16 | IC50 (topo IV from E. coli; read-out: IC50): < 100 nM
2 | Cc1[nH]c(C(=O)Nc2nc3c(N4CCOC4=O)cc(C(=O)O)cc3s2)c(Cl)c1Cl [7m, 2-(3,4-Dichloro-5-methyl-1H-pyrrole-2-carboxamido)-4-(2-oxooxazolidin-3-yl)benzo[d]thiazole-6-carboxylic Acid] | 32 | 4 | 8 | > 64 | > 64 | > 64 | 64 | 64 | 64 | 64 | > 64 | > 64 | 4 | < 10 | 180 ± 16 | MIC (E. faecium ATCC 700221): 4 µg/mL
3 | Cc1[nH]c(C(=O)Nc2nc3c(N4CCC5(CC4)OCCO5)cc(C(=O)O)cc3s2)c(Cl)c1Cl [7r, 2-(3,4-Dichloro-5-methyl-1H-pyrrole-2-carboxamido)-4-(1,4-dioxa-8-azaspiro[4.5]decan-8-yl)benzo[d]thiazole-6-carboxylic Acid] | 2 | < 0.0312 | < 0.0312 | 8 | 32 | 4 | < 0.0312 | < 0.0312 | < 0.0312 | < 0.0312 | 8 | 8 | < 0.0312 | 17 ± 11 | – | solubility thermodynamic at 24 h (physchem; pH 7.4, PBS pH 7.4, read-out: thermodynamic solubility, Experiment 1): 26.7 µM (≈ 13.7 µg/mL); solubility thermodynamic at 24 h (physchem; pH 7.4, PBS pH 7.4, read-out: thermodynamic solubility, Experiment 2): 27.3 µM (≈ 13.9 µg/mL); solubility thermodynamic at 24 h (physchem; pH 7.4, thermodynamic solubility (pH = 7.4), PBS, 37 °C, 24 h, mean of two): 27 µM (≈ 13.8 µg/mL)
4 | Cc1[nH]c(C(=O)Nc2nc3c(N4CC[S+]([O-])CC4)cc(C(=O)O)cc3s2)c(Cl)c1Cl [7s, 2-(3,4-Dichloro-5-methyl-1H-pyrrole-2-carboxamido)-4-(1-oxidothiomorpholino)benzo[d]thiazole-6-carboxylic Acid] | 32 | 16 | > 64 | > 64 | > 64 | > 64 | 64 | 64 | > 64 | > 64 | > 64 | > 64 | 16 | < 10 | – | IC50 (topo IV from E. coli; IC50): < 100 nM; IC50 (topo IV from E. coli; IC50 [nM] E. coli TopoIV): 72 ± 3 nM
